{
  "source": "patent US20240108740A1",
  "about": "“THERAPEUTIC COMPOSITIONS INCLUDING SPN10 AND USES THEREOF” (Stealth BioTherapeutics Inc., priority 2022, published 2024)",
  "key": {"CD-1 mice": {"test_system": "CD-1 mice", "assay": "Example 7: streptozotocin (STZ)-induced diabetes, renal damage", "assay_type": "in vivo, mouse", "conditions": "STZ-treated mice", "experimental": "Streptozotocin (STZ) will be used to induce diabetes in mice. […] groups of CD-1 mice will be studied: Group I—no STZ treatment; Group II—STZ (50 mg/kg, i.p.) will be given once daily for 5 days; Group III—STZ (50 mg/kg, i.p.) will be given once daily for 5 days, +peptide conjugates (3 mg/kg, i.p.) will be given once daily for 16 days; Group IV—STZ (50 mg/kg, i.p.) will be given once daily for 5 days, +aromatic-cationic peptides (an equivalent molar dose of aromatic-cationic peptide based on the concentration of the aromatic-cationic peptide administered in the peptide conjugate treatment group) will be given once daily for 16 days; Group V—STZ (50 mg/kg, i.p.) will be given once daily for 5 days, +SPN10 (an equivalent molar dose of SPN10 based on the concentration of SPN10 administered in the peptide conjugate treatment group) will be given once daily for 16 days; Group VI—STZ (50 mg/kg, i.p.) will be given once daily for 5 days, +SPN10(s) in combination with aromatic-cationic peptides (e.g., an equivalent molar dose of SPN10 based on the concentration of SPN10 administered in the peptide conjugate treatment group and an equivalent molar dose of aromatic-cationic peptide based on the concentration of aromatic-cationic peptide administered in the peptide conjugate treatment group) will be given once daily for 16 days. It is anticipated that STZ treatment will result in a progressive increase in blood glucose. Animals will be sacrificed after 3 weeks and kidney tissues preserved for histopathology. Kidney sections will be examined by Periodic Schiff (PAS) staining for renal tubular brush border.\nIt is anticipated that STZ treatment will induce significant apoptosis in tubular epithelial cells. Kidney sections will be examined for apoptosis using a TUNEL assay as described herein. It is anticipated that kidney sections from mice treated with STZ will show a large number of apoptotic nuclei in the proximal tubules, compared to non-STZ treated controls."}, "isolated mitochondria": {"test_system": "isolated mitochondria", "assay": "Example 13: mitochondrial swelling (A540) and cytochrome c release (ELISA)", "text": "MPT pore opening results in mitochondrial swelling. […] Mitochondrial suspensions will be centrifuged and the amount of cytochrome c in the pellet and supernatant will be determined using a commercially available ELISA kit."}, "normal, mobile mice": {"test_system": "normal, mobile mice", "assay": "Skeletal muscle size and mitochondrial function in normal, mobile mice", "assay_type": "in vivo, mouse", "text": "1. Normal, mobile mice: Normal, mobile mice will be randomly divided into […], A-E, with 8 mice per group. Group A mice will receive an injection of saline vehicle; Group B mice will receive an i.p. injection of the peptide conjugate; Group C mice will receive an i.p. injection of aromatic-cationic peptide; Group D mice will receive an i.p. injection of SPN10; Group E mice will receive an i.p. injection of SPN10+aromatic-cationic peptide.\nPreparation of permeabilized muscle fibers. Permeabilized muscle fibers will be prepared as previously described. Korshunov, et al., FEBS Lett 416:15-18, 1997; Tonkonogi, et al., Pfliigers Arch 446:261-269, 2003. Briefly, the muscle will be trimmed of connective tissue and cut down to fiber bundles (4-8 mg wet wt). […]\nMitochondrial respiration in permeabilized fibers. Respiration will be measured polarographically in a respiration chamber maintained at 37° C. […] Flux through complex I will be measured using 5 mM pyruvate and 2 mM malate. […] Basal respiration (state 4) will be determined in the presence of 10 µg/mL oligomycin to inhibit ATP synthesis. The respiratory control ratio (RCR) will be calculated by dividing state 3 by state 4 respiration."}, "[1]": {"test_system": "isolated mouse liver mitochondria", "assay": "Example 20: spontaneous and antimycin-induced H2O2 production by isolated mitochondria", "experimental": "Livers will be harvested from mice, homogenized in ice-cold buffer, and centrifuged at 13800×g for 10 min. The pellet will be washed once, re-suspended in 0.3 mL of wash buffer, and placed on ice until use. H2O2 will be measured using luminol chemiluminescence as described previously (Li, et al., Biochim. Biophys. Acta 1428, 1-12 (1999). 0.1 mg mitochondrial protein will be added to 0.5 mL potassium phosphate buffer (100 mM, pH 8.0) in the presence of vehicle, peptide conjugates, aromatic-cationic peptides, or SPN10(s) with or without aromatic-cationic peptides. 25 mM luminol and 0.7 IU horseradish peroxidase will be added, and chemiluminescence will be monitored with a Chronolog Model 560 aggregometer (Havertown, PA) for 20 minutes at 37° C. The amount of H2O2 produced will be quantified as the area under the curve (AUC) over 20 min, and all data will be normalized to AUC produced by mitochondria alone."}},
  "note": "Residues, ends and D or L forms follow the SMILES beside them.",
  "data": [
    {"smiles": "N=C(N)NCCC[C@H](NC(=O)[C@@H](N)Cc1c[nH]c2ccccc12)C(=O)N[C@@H](Cc1c[nH]c2ccccc12)C(=O)N[C@@H](CCCCN)C(N)=O", "note": "[SPN10, H-L-Trp-L-Arg-L-Trp-L-Lys-NH2] (H-WRWK-NH2)", "values": [
      {"measurement": "apoptotic cells in the proximal tubule (TUNEL)", "setting": "CD-1 mice", "result": "dramatically reduce apoptotic cells"},
      {"measurement": "tubular epithelial nuclei", "setting": "CD-1 mice", "result": "appear normal"},
      {"measurement": "loss of brush border in proximal tubules (PAS)", "setting": "CD-1 mice; daily treatment", "result": "prevent the loss of brush border"},
      {"measurement": "mitochondrial swelling induced by MPP^+", "setting": "isolated mitochondria", "result": "prevent mitochondrial swelling"},
      {"measurement": "swelling and cytochrome c release induced by Ca^2+ overload", "setting": "isolated mitochondria; pre-treatment", "result": "inhibit swelling and cytochrome c release"},
      {"measurement": "normal soleus muscle weight, RCR, mitochondrial state 3 and state 4 respiration", "setting": "normal, mobile mice; mobile mice", "result": "no effect"},
      {"measurement": "normal skeletal muscle size or mitochondrial function", "setting": "normal, mobile mice; mouse, in vivo", "result": "no effect"},
      {"measurement": "spontaneous production of H2O2", "setting": "[1]", "result": "dose-dependently reduce the spontaneous production of H2O2"},
      {"measurement": "production of H2O2 induced by antimycin", "setting": "[1]; antimycin", "result": "dose-dependently reduce the production of H2O2 induced by antimycin"}
    ]}
  ]
}
